Each structure is given as a SMILES string.

In turn, `CC(C=CC1=C(C)C(=O)CC1(C)C)=CC=O` came in with a melting point of 91 to 93 °C.

Compound `CCCn1c(CCO)nc2c(N)nc3cc(OCCCNC(=O)C(C)C)ccc3c21` had a melting point of 190 to 192 °C.

`CC[C@@]12C/C(=C\c3ccccc3)C(=O)C[C@H]1CCc1cc(O)ccc12` came in with a melting point of 265 to 266 °C.

`CC(N)CC(=O)N(c1ccc(Nc2ccccc2)cc1)C(C)C` (configuration not stated) returned a melting point of 145 to 151 °C.

`CCCOCC1(C)CCCOc2cc(/C=C/c3ccc(C(=O)O)cc3)ccc21` (configuration not stated) had a melting point of 164 to 165 °C.

Turning to `Cc1cccc2oc(C(=O)Nc3ccc(-c4ccc(S(=O)(=O)NC(C(=O)O)C(C)C)cc4)cc3)c(C)c12` (configuration not stated), the melting point was in the range of 250 to 252 °C.

The compound `O=[N+]([O-])c1cnn2c(-c3cccs3)ccnc12` returned a melting point of 235 to 237 °C.

Turning to `Oc1cnn(-c2ccc(Cl)cc2Cl)c1`, the melting point lay within 148 to 149 °C.

For the compound `COC(=O)C(c1ccc(NC(C)=O)cc1)C1CC1` (configuration not stated), the melting point fell in the range of 159 to 162 °C.

Compound `COC(=O)c1cc2cc(OCCCl)ccc2s1` yielded a melting point of 116 to 117 °C.

As to `CCCCCCCCCCCCCCCCCC(=O)N[C@@H](C)C(=O)O`, the melting point stood at 102 °C.

In turn, `O=C(O)C1=Cc2cc(Cl)c(Oc3ccc(Cl)cc3)cc2OC1C(F)(F)F` (configuration not stated) registered a melting point of 205 to 206 °C.

Consider `CC1(C)CC2(CC(C)(C)N1c1nc(Cl)nc(Cl)n1)OCCO2`, for which the melting point is 169 to 172 °C.

The compound `CCc1ccc(C(=O)CCCSc2nnnn2C)cc1` displayed a melting point of 68 to 69 °C.

As for `CCN(C)c1ccc2c(c1)CNC2=O`, the melting point fell in the range of 127 to 129 °C.

Compound `COCO[C@H]1C[C@H]2OC(C)(C)OC[C@]23C2C(CC[C@]3(O)C1)[C@@]1(OCOC)CC[C@H](CO)[C@@]1(C)C[C@H]2OCOC` (some centres not stated) came in with a melting point of 154 to 158 °C.

`COc1nc(OC)nc(-n2cnc(S(C)(=O)=O)n2)n1` yielded a melting point of 170 °C.

`NS(=O)(=O)c1cccc(NC(=O)c2cnn3ccc(-c4ccc(C(F)(F)F)cc4)nc23)c1`: the melting point fell in the range of 318 to 320 °C.

`COc1nc(C)c(CCN2CC=C(c3c[nH]c4ccccc34)CC2)c(=O)n1C` had a melting point of 209 to 211 °C.

`O=c1[nH]c(=O)n(Cc2ccc(Oc3ccc(Cn4oc(=O)[nH]c4=O)cc3)cc2)o1` had a melting point of 175 to 178 °C.

For `Cc1cc(Nc2ccn(-c3ccccc3)n2)cc(C)c1OC(=O)CC#N`, the melting point lay in the range of 116 to 117 °C.

Compound `CCOC(=O)/C=C(\c1ccc(F)cc1)c1cc(OC)c(OC)c(OC)c1` came in with a melting point of 133 to 135 °C.

In turn, `COc1ccc(CCOCCCCCCNCC(O)c2ccc(O)c(CCO)c2)cc1` (configuration not stated) came in with a melting point of 84 to 85 °C.

`O=S(=O)(c1ccccc1)C1CCCO1` (configuration not stated) showed a melting point of 55.9 to 56.8 °C.

`Cc1c(C)c2c(c(C)c1NC(=O)CC(C)(C)C)OC(C)(C)C2c1ccc(C(C)C)cc1` (configuration not stated): the melting point was in the range of 128 to 129 °C.

Take `COC(=O)C1=C(C)NN=C(C(=O)OC(C)C)C1c1ccccc1Cl` (configuration not stated): the melting point was 166 °C.

Consider `Cc1nccc2[nH]c(=O)c(O)cc12`, for which the melting point is > 320 °C.

`O=C(Cc1c[nH]c2ccccc12)Nc1ccc(-n2nc(C3CC3)cc2C2CC2)cc1` showed a melting point of 158 to 164 °C.

`Oc1ccc(C2CCOCC2)cc1` yielded a melting point of 164 °C.

Take `COc1ccc([N+](=O)[O-])cc1C=C1COc2ccc(OCc3ccccc3)cc2C1=O`: the melting point was 156 to 157 °C.

`COc1cc(COc2nn(-c3ccccc3)cc2/C=C/C(=O)O)ccc1OCc1nc(-c2ccco2)oc1C` returned a melting point of 204 to 205 °C.

Turning to `Cc1nc(C)c(Cl)c(NCc2nccc(SCCCSc3sccc3[N+](=O)[O-])c2C)n1`, the melting point lay in the range of 174 to 180 °C.

Regarding `CCc1nc2c(N)nc3cc(OCC(=O)N4CCOCC4)ccc3c2n1CCOc1ccccc1`, the melting point was 208 to 209 °C.

`CC1(c2cc(-c3ccc(F)cc3F)cc(C(=O)Nc3ccc(S(=O)(=O)C(F)(F)F)cc3Cl)c2O)CCCCC1` displayed a melting point of 114 to 115 °C.

For the compound `CCc1cccc(NC(=O)NC2N=C(c3ccccc3F)c3ccccc3N(CC(=O)N3CC4CCC(CC4)C3)C2=O)c1` (racemic), the melting point fell in the range of 185 to 192 °C.

`O=C(/C=C/c1ccc(Cl)cc1)N1CCN(C(=O)c2cc(C(F)(F)F)cc(C(F)(F)F)c2)[C@H](Cc2c[nH]c3ccccc23)C1`: the melting point lay in the range of 125 to 138 °C.

Turning to `CCCCc1nc(SCCOC(C)=O)c(C(=O)OCC)[nH]1`, the melting point amounted to 68 °C.

Take `COc1ccc(N2CCOCC2)c2sc(NC(=O)N(C)C3CCCC3)nc12`: the melting point was 110 to 125 °C.

As to `O=C(O)c1ccc(OC(F)F)c2oc3ccncc3c12`, the melting point was > 250 °C.

`CN1CC(CCO)N2c3ccccc3Oc3ccccc3C2C1` (configuration not stated) returned a melting point of 138 to 139 °C.

With `O=C(O)Cn1cc(C(=O)c2ccn3c2CSC3c2cccnc2)c2ccc(-c3ccc(F)cc3)cc21` (configuration not stated), the melting point fell in the range of 240 to 249 °C.

For `CCc1nc(N)nc(N)c1-c1ccc(N(C)C)c([N+](=O)[O-])c1`, the melting point fell in the range of 256 to 258 °C.

As to `Cn1nc2c(c1S(C)(=O)=O)CCCN2c1ccc(Cl)cc1Cl`, the melting point was 182 to 183 °C.

For the compound `COc1ccccc1N1CCN(C(=O)Nc2cc3ccccc3nc2OC)CC1`, the melting point was in the range of 159 to 161 °C.

For the compound `CCOC(=O)CNC(=O)c1cc2c(s1)-n1c(C)nnc1CN=C2c1ccccc1Cl`, the melting point fell in the range of 251 to 252 °C.

The compound `Cn1nc(N2c3ccccc3C[C@H]2C(=O)O)ccc1=O` gave a melting point of 245 to 247 °C.

For `FC(F)(F)c1cc(-c2ccc(Cl)c(Cl)c2)nc2c(-c3ccncc3)cnn12`, the melting point turned out to be 260 °C.

Regarding `CCn1c(=O)c2[nH]c(C(C)C)nc2n(Cc2ccc(OC)c(OC)c2)c1=O`, the melting point lay within 198 to 201 °C.

`COc1ccc(S(=O)(=O)n2c(N)nc3c2c(=O)n(CC2CC2)c(=O)n3CC2CC2)cc1` returned a melting point of 177 to 178 °C.

Consider `COc1cc(OC)c([N+](=O)[O-])c(OC)c1N`, for which the melting point was 111 °C.

For the compound `CCOC(=O)c1cn(C2CC2)c2c(Cl)c(F)c(F)c(C)c2c1=O`, the melting point lay within 153 to 154 °C.

`CCC(=NOCc1cccs1)c1cc(Cl)ccc1NS(=O)(=O)C(F)(F)F` registered a melting point of 53 to 54 °C.

As for `O=C(CSc1ccc(Cl)cc1)c1ccccc1`, the melting point lay within 65 to 66 °C.

`O=Cc1ccccc1P(=O)(c1ccccc1)c1ccccc1` yielded a melting point of 131 to 134 °C.

The compound `CC[Si](CC)(Cc1ccc(N(c2ccccc2)c2ccccc2)cc1)Cc1ccc(N(c2ccccc2)c2ccccc2)cc1` displayed a melting point of 115 to 117 °C.

The compound `C1=Cc2cccnc2Nc2ncccc21` yielded a melting point of 126 to 129 °C.

In the case of `O=[N+]([O-])c1ccc(OCc2ccccc2)cc1OCc1ccccc1`, the melting point was in the range of 101 to 103 °C.

In turn, `COc1cccc2sc(-c3ccc(C)cc3)nc12` displayed a melting point of 98 to 100 °C.

In the case of `O=Cc1ccc2c(ccc3ccccc32)c1`, the melting point lay within 58 to 60 °C.

Turning to `COc1cc(OC)nc(Oc2cccc(Oc3nc(OC)cc(OC)n3)c2CBr)n1`, the melting point came to 127 °C.

The compound `COC(c1ccccc1)c1cc(C(F)(F)F)nc2c(C(F)(F)F)cccc12` (configuration not stated) gave a melting point of 115 to 117 °C.

Compound `CCOC(=O)CCCCCCn1c(=O)c(=O)[nH]c2cc(Br)ccc21` gave a melting point of 187 to 190 °C.

As for `O=C1CC(c2ccc(Cl)cc2)Oc2ccccc21` (configuration not stated), the melting point lay in the range of 96 to 98 °C.

`O=S1(=O)NC(C2CCCCC2)Nc2ccc(S(=O)(=O)N3CCOCC3)cc21` (configuration not stated) displayed a melting point of 262 to 264 °C.

Regarding `COc1ncc(Oc2ccc(Cl)cc2)c2cc(C(N)=O)sc12`, the melting point is > 250 °C.

`CC(C)(NC(=O)C(CO)NC(=O)c1ccccc1)c1ccccc1` (configuration not stated): the melting point lay within 152 to 153 °C.

`C/C(=C\Cn1oc(=O)[nH]c1=O)c1cccc(OCc2nc(-c3ccc(OCC(F)(F)F)cc3)oc2C)c1` had a melting point of 145 to 146 °C.

Regarding `Nc1cc(CO)cc(S(N)(=O)=O)c1Oc1cccc(C(F)(F)F)c1`, the melting point was 133 to 134 °C.

Regarding `CC(=O)N1CCc2ccc(/C=C/CCN3CCC(c4ccc(Cl)cc4)CC3)cc2CC1`, the melting point lay in the range of 153 to 155 °C.

Compound `CS(=O)(=O)Nc1ccc(F)cc1OCCCN1CCC(OC(c2ccccc2)c2ccccc2)CC1` returned a melting point of 52 to 56 °C.

With `CCN(CC)CCOc1ccc(Nc2nc(N)c(C(=O)c3cccc(OC)c3)s2)cc1`, the melting point fell in the range of 118 to 123 °C.

Turning to `CNC1Oc2cc(Cl)cc(-c3ccccc3C)c2O1` (configuration not stated), the melting point was > 250 °C.

`Cc1cc(C)c(C)c(COc2cccc(-c3ccoc3C(=O)NNC(=O)c3ccc(O)c([N+](=O)[O-])c3)c2)c1C`: the melting point was in the range of 140 to 142 °C.

The compound `CCC1(C)CC(=O)C2(C)CCC3c4ccc(OC)cc4CCC3C12` (configuration not stated) displayed a melting point of 104 to 107 °C.

In turn, `C/C=C/c1ccc2c(NCc3ccc(NC(=O)c4ccc(Cl)nc4)cc3)nc(N(C)C)nc2c1` displayed a melting point of 185 °C.

For the compound `O=C(NC1CC1c1ccc(-c2ncn(-c3ccc(OC(F)(F)F)cc3)n2)cc1)Oc1ccccc1` (configuration not stated), the melting point lay in the range of 171 to 173 °C.

In turn, `C=C(C(=O)OCC)c1cccc(-c2cc3c(cc2C)C(C)(C)CCC3(C)C)c1` had a melting point of 70 to 72 °C.

Regarding `Cc1cc(=O)[nH]n(Cc2ccccc2)c1=O`, the melting point was > 200 °C.

Turning to `CC(C(=O)c1ncn2c1c(=O)n(C(C)C)c1ccccc12)C(=O)C1CC1` (configuration not stated), the melting point fell in the range of 167 to 169 °C.

Consider `CN1C(=O)C2CC2(c2ccc(N(C)C)cc2)C1=O` (configuration not stated), for which the melting point amounted to 140 °C.

`O=C1CC(c2ccc(F)cc2)Cc2occ(C(F)(F)F)c21` (configuration not stated): the melting point is 105 to 106 °C.

As for `COC(=O)c1ccc(Cn2c(=O)c3cc(C(=O)NCc4cccc(OC)c4)sc3n(C)c2=O)cc1OC`, the melting point lay in the range of 200 to 203 °C.

`COc1ccc(-c2cc(COCCc3cccc(NS(=O)(=O)C(F)(F)F)c3)ccc2F)cc1` showed a melting point of 70 to 71 °C.

For the compound `Cc1ccnc(C(O)c2ccc(N)cc2)c1` (configuration not stated), the melting point was 156 to 158 °C.

Consider `O=C(OC1CNC(=N[N+](=O)[O-])NC1)C1(C2CCCCC2)CCCCC1` (configuration not stated), for which the melting point was 196 to 197 °C.

`CC(C#Cc1ccc(Br)cc1)N(O)C(N)=O` (configuration not stated) gave a melting point of 155 to 157 °C.

`CC(=O)NC[C@H]1CN(c2ccc(C3CCOCC3)c(F)c2)C(=O)O1` showed a melting point of 191 to 192 °C.

For orientation: melting point means the temperature of the solid-liquid transition.

The values are drawn from a melting point compilation (Tetko et al.; mined from patent text by program, amines drawn as free bases though some values may be those of a salt).
